Legend:
Assay in all cases: combination Emax (second highest fraction inhibited in the dose matrix, 72 h); higher = more inhibition; extreme values may be limits of the assay
[1] = system: RPMI-8866 (Chronic Myelogenous Leukemia)
Outline: (§1)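 After 24 hours at 37°C and 5% CO2 in 1536-well plates, cells in DMEM/F12 or RPMI plus 10% FBS received two-drug dose matrices for 72 hours. Viability came from CellTiter-Glo 2.0 luminescence and was scaled as inhibition, anchored at 0 by vehicle wells and at 1 by blank wells. Combination Emax is taken as the second-highest inhibition in the matrix, and Bliss excess as the observed combination effect less EA + EB − EA·EB, with EA and EB the single-agent effects.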

[2] = system: NCI-H196 (Small Cell Lung Carcinoma)
Outline: as §1

[3] = system: OCI-AML5 (Acute Myeloid Leukemia)
Outline: as §1

[4] = system: NCI-H1623 (Lung Adenocarcinoma)
Outline: as §1

[5] = system: HTC-C3 (Thyroid Gland Carcinoma)
Outline: as §1

[6] = system: PANC-02-03 (Pancreatic Carcinoma)
Outline: as §1

[7] = system: NCI-H810 (Non-Small Cell Lung Carcinoma)
Outline: as §1

ES-2 (Ovarian Carcinoma) = system: ES-2 (Ovarian Carcinoma)
Outline: as §1

[8] = system: NKM-1 (Acute Myeloid Leukemia)
Outline: as §1

HuO-3N1 (Osteosarcoma) = system: HuO-3N1 (Osteosarcoma)
Outline: as §1

KYM-1 (Rhabdomyosarcoma) = system: KYM-1 (Rhabdomyosarcoma)
Outline: as §1

[9] = system: FLO-1 (Esophageal Adenocarcinoma)
Outline: as §1

[10] = system: LAMA-84 (Chronic Myelogenous Leukemia)
Outline: as §1

[11] = system: SNU-175 (Colorectal Carcinoma)
Outline: as §1

[12] = system: RL95-2 (Endometrial Carcinoma)
Outline: as §1

[13] = system: OVTOKO (Ovarian Carcinoma)
Outline: as §1

[14] = system: PC-14 (Lung Adenocarcinoma)
Outline: as §1

[15] = system: JHH-1 (Hepatocellular Carcinoma)
Outline: as §1

[16] = system: SW684 (Other Solid Carcinomas)
Outline: as §1

[17] = system: SK-MM-2 (Plasma Cell Myeloma)
Outline: as §1

Row | Structure (SMILES) | combination Emax [1] | combination Emax [2] | combination Emax [3] | combination Emax [4] | combination Emax [5] | combination Emax [6] | combination Emax [7] | combination Emax (ES-2 (Ovarian Carcinoma)) | combination Emax [8] | combination Emax (HuO-3N1 (Osteosarcoma)) | combination Emax (KYM-1 (Rhabdomyosarcoma)) | combination Emax [9] | combination Emax [10] | combination Emax [11] | combination Emax [12] | combination Emax [13] | combination Emax [14] | combination Emax [15] | combination Emax [16] | combination Emax [17]
1 | Cc1c2c(nn1C)CSCc1cc(n(C)n1)CSc1cc(c3ccccc3c1)OCCCc1c(C(=O)O)n(C)c3c-2c(Cl)ccc13 [AZD5991] + CC1(C)CCC(CN2CCN(c3ccc(C(=O)NS(=O)(=O)c4ccc(NCC5CCOCC5)c([N+](=O)[O-])c4)c(Oc4cnc5[nH]ccc5c4)c3)CC2)=C(c2ccc(Cl)cc2)C1 [Venetoclax] (first compound max 1 µM, 7x7, partner max 1 µM) | 0.438 | 0.23 | 1 | 0.905 | 0.147 | 0.138 | 0.533 | 0.241 | 0.999 | 0.733 | 0.592 | 0.382 | 0.183 | 0.926 | 0.943 | 0.198 | 0.245 | 0.963 | 0.174 | 1
2 | Cc1cc2ncnn2cc1Nc1ncc2c(n1)n(C1CCOCC1)c(=O)n2C [AZD7648] + CCN(CCO)CCCOc1ccc2c(Nc3cc(CC(=O)Nc4cccc(F)c4)[nH]n3)ncnc2c1 [AZD2811] (first compound max 10 µM, 7x7, partner max 1 µM) | 0.732 | 0.185 | 0.969 | 0.28 | 0.202 | 0.254 | 0.643 | 0.288 | 0.605 | 0.35 | 0.182 | 0.406 | 0.336 | 0.646 | 0.595 | 0.232 | 0.312 | 0.113 | 0.352 | 0.313
3 | C=CCn1c(=O)c2cnc(Nc3ccc(N4CCN(C)CC4)cc3)nc2n1-c1cccc(C(C)(C)O)n1 [AZD1775] + C[C@@H]1COCCN1C2=NC(=NC(=C2)C3(CC3)[S@](=N)(=O)C)C4=C5C=CNC5=NC=C4 [AZD6738] (first compound max 1 µM, partner max 10 µM) | 0.989 | 0.53 | 0.981 | 0.74 | 0.882 | 0.728 | 0.975 | 0.841 | 0.983 | 0.5 | 0.837 | 0.924 | 0.993 | 0.702 | 0.914 | 0.56 | 0.918 | 0.642 | 0.474 | 0.705
4 | Cc1c2c(nn1C)CSCc1cc(n(C)n1)CSc1cc(c3ccccc3c1)OCCCc1c(C(=O)O)n(C)c3c-2c(Cl)ccc13 [AZD5991] + CCN(CCO)CCCOc1ccc2c(Nc3cc(CC(=O)Nc4cccc(F)c4)[nH]n3)ncnc2c1 [AZD2811] (first compound max 1 µM, 7x7, partner max 1 µM) | 0.764 | 0.222 | 1 | 0.899 | 0.235 | 0.269 | 0.981 | 0.345 | 0.969 | 0.875 | 0.62 | 0.489 | 0.636 | 0.96 | 1 | 0.241 | 0.371 | 0.517 | 0.231 | 0.487
5 | Cc1c2c(nn1C)CSCc1cc(n(C)n1)CSc1cc(c3ccccc3c1)OCCCc1c(C(=O)O)n(C)c3c-2c(Cl)ccc13 [AZD5991] + Cc1cc2ncnn2cc1Nc1ncc2c(n1)n(C1CCOCC1)c(=O)n2C [AZD7648] (first compound max 1 µM, 7x7, partner max 10 µM) | 0.533 | 0.219 | 1 | 0.952 | 0.245 | 0.183 | 0.514 | 0.313 | 0.984 | 0.85 | 0.265 | 0.489 | 0.22 | 0.461 | 0.999 | 0.41 | 0.27 | 0.35 | 0.298 | 0.375
6 | NC1(C(=O)N[C@@H](CCO)c2ccc(Cl)cc2)CCN(c2ncnc3[nH]ccc23)CC1 [Capivasertib] + Cn1cnc2c(F)c(Nc3ccc(Br)cc3Cl)c(C(=O)NOCCO)cc21 [Selumetinib] (first compound max 10 µM, 7x7, partner max 10 µM) | 0.432 | 0.281 | 0.951 | 0.813 | 0.772 | 0.572 | 0.139 | 0.616 | 0.965 | 0.439 | 0.52 | 0.559 | 0.977 | 0.534 | 1 | 0.565 | 0.834 | 0.295 | 0.626 | 0.36
7 | Cc1c2c(nn1C)CSCc1cc(n(C)n1)CSc1cc(c3ccccc3c1)OCCCc1c(C(=O)O)n(C)c3c-2c(Cl)ccc13 [AZD5991] + CN(C)CCCOc1ccc(-c2ccc3ncc4c(c3c2)n(C2CCOCC2)c(=O)n4C)cn1 [AZD0156] (first compound max 1 µM, 7x7, partner max 1 µM) | 0.668 | 0.205 | 1 | 0.891 | 0.179 | 0.203 | 0.474 | 0.313 | 0.967 | 0.844 | 0.268 | 0.36 | 0.177 | 0.458 | 0.977 | 0.319 | 0.236 | 0.48 | 0.236 | 0.355
8 | COc1nnc2ccc(N3CCC(c4ccc(OCCN5CCN(C)C(=O)[C@H]5C)cc4)CC3)nn12 [AZD5153] + C=CCn1c(=O)c2cnc(Nc3ccc(N4CCN(C)CC4)cc3)nc2n1-c1cccc(C(C)(C)O)n1 [AZD1775] (first compound max 1 µM, partner max 1 µM) | 0.952 | 0.473 | 0.905 | 0.59 | 0.772 | 0.645 | 0.8 | 0.747 | 0.904 | 0.466 | 0.901 | 0.888 | 0.978 | 0.813 | 0.621 | 0.622 | 0.883 | 0.584 | 0.452 | 0.878
9 | Cc1cc2ncnn2cc1Nc1ncc2c(n1)n(C1CCOCC1)c(=O)n2C [AZD7648] + CN(C)CCCOc1ccc(-c2ccc3ncc4c(c3c2)n(C2CCOCC2)c(=O)n4C)cn1 [AZD0156] (first compound max 10 µM, 7x7, partner max 1 µM) | 0.638 | 0.203 | 0.297 | 0.257 | 0.161 | 0.236 | 0.287 | 0.295 | 0.384 | 0.369 | 0.165 | 0.358 | 0.202 | 0.173 | 0.246 | 0.229 | 0.28 | 0.207 | 0.268 | 0.205
10 | CCN(CCO)CCCOc1ccc2c(Nc3cc(CC(=O)Nc4cccc(F)c4)[nH]n3)ncnc2c1 [AZD2811] + C[C@@H]1COCCN1C2=NC(=NC(=C2)C3(CC3)[S@](=N)(=O)C)C4=C5C=CNC5=NC=C4 [AZD6738] (first compound max 1 µM, 7x7, partner max 10 µM) | 0.955 | 0.276 | 0.983 | 0.6 | 0.858 | 0.62 | 0.738 | 0.728 | 0.879 | 0.339 | 0.762 | 0.6 | 0.97 | 0.578 | 0.773 | 0.37 | 0.83 | 0.504 | 0.385 | 0.533
11 | C[C@@H]1COCCN1c1cc(C2([S@](C)(=N)=O)CC2)nc(-c2ccnc3[nH]ccc23)n1 [AZD6738] + O=C(c1cc(Cc2n[nH]c(=O)c3ccccc23)ccc1F)N1CCN(C(=O)C2CC2)CC1 [Olaparib] (first compound max 10 µM, 7x7, partner max 10 µM) | 0.982 | 0.347 | 0.907 | 0.693 | 0.83 | 0.692 | 0.766 | 0.662 | 0.902 | 0.339 | 0.792 | 0.75 | 0.961 | 0.532 | 0.641 | 0.398 | 0.816 | 0.458 | 0.422 | 0.572
12 | COc1cc2ncnc(Nc3ccc(F)c(Cl)c3)c2cc1OCCCN1CCOCC1 [Gefitinib] + CC(C)n1c(=O)n(C)c2cnc3cc(F)c(-c4ccc(OCCCN5CCCCC5)nc4)cc3c21 [AZD1390] (first compound max 10 µM, 7x7, partner max 0.3 µM) | 0.119 | 0.0162 | 0.145 | 0.904 | 0.0317 | 0.266 | 0.158 | 0.41 | 0.167 | 0.0711 | 0.224 | 0.357 | 0.315 | 0.456 | 0.0606 | 0.428 | 0.752 | 0.247 | 0.136 | 0.151
13 | NC1(C(=O)N[C@@H](CCO)c2ccc(Cl)cc2)CCN(c2ncnc3[nH]ccc23)CC1 [Capivasertib] + COc1nnc2ccc(N3CCC(c4ccc(OCCN5CCN(C)C(=O)[C@H]5C)cc4)CC3)nn12 [AZD5153] (first compound max 10 µM, 7x7, partner max 1 µM) | 0.839 | 0.326 | 0.769 | 0.52 | 0.791 | 0.602 | 0.582 | 0.766 | 1 | 0.481 | 0.874 | 0.612 | 0.907 | 0.649 | 0.9 | 0.604 | 0.638 | 0.378 | 0.579 | 0.887
